Laboratory results: PubChem BioAssay (NCI)
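A five-concentration, 48-hour dose response in 96-well plates underlies each endpoint, interpolated linearly between surrounding concentrations. GI50: concentration for 50% inhibition of growth. The concentration for full growth arrest is given as TGI.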

Legend:
Test in all cases: inhibition of tumour cell growth, NCI panel, 48 h
[1] = tested on: COLO 205 colon
[2] = tested on: HCC-2998 colon
[3] = tested on: HCT-116 colon
[4] = tested on: HCT-15 colon
[5] = tested on: HOP-92 NSCLC
[6] = tested on: NCI-H522 lung
[7] = tested on: SF-539 CNS
[8] = tested on: SW-620 colon
[9] = tested on: NCI-H226 lung
[10] = tested on: SK-MEL-5 melanoma

SMILES	TGI [1] [µM]	TGI [2] [µM]	TGI [3] [µM]	TGI [4] [µM]	TGI [5] [µM]	TGI [6] [µM]	TGI [7] [µM]	TGI [8] [µM]	TGI [9] [µM]	TGI [10] [µM]	GI50 [1] [µM]	GI50 [2] [µM]	GI50 [3] [µM]	GI50 [4] [µM]	GI50 [5] [µM]	GI50 [9] [µM]	GI50 [6] [µM]	GI50 [7] [µM]	GI50 [10] [µM]	GI50 [8] [µM]
O=C1c2ccccc2C2(O)NC(=S)N(c3ccccc3)C12O (configuration not stated)	> 100	> 100	> 100	> 100	> 100	> 100	> 100	> 100												
Cc1cccc(Cl)c1NC(=O)/C=C/c1ccccc1	> 100	> 100	> 100	> 100	> 100	> 100	> 100	> 100	> 100	> 100										
CCN=c1cc2sc3cc(NCC)c(C)cc3nc-2cc1C	7.78	11.8	2.01	9.51	5.62	2.61	10.2	12.8	29	1.93	2.15	3.5	0.361	0.489	0.652	10.1	0.419	0.434	0.475	0.694
c1ccc2c(c1)-c1ccccc1C2N1CC2CCC(CC2)C1	38.1	31.4	46.9	40	48.5	28.5	48.9	49.1	41.5	32.6										
CCC[CH2][Sn]([CH2]CCC)([O]C(=O)C(N)CSC)[O]C(=O)C(N)CSC (configuration not stated)	19.9	30.5	24.7	25.4	20.3	3.39	26.7	23	34.9	25	6.5	13.1	11.6	11.6	8.05	20.5	1.34	13.3	11.6	6.08
CN1CCCCCC(=N\O)/C(=N/O)CCCCC1			> 100	> 100	> 100	> 100	> 100	> 100	> 100	> 100										
O=C(Nc1cc[c]([Sb](=[O])([OH])[OH])cc1)c1ccccc1			> 100	> 100	> 100	> 100		> 100	> 100	> 100			> 100	> 100	> 100	> 100	> 100		> 100	> 100
CC(=O)/C(=C\C1=CCCO1)C(=O)Nc1ccccc1C		> 100	> 100	> 100	> 100	> 100	> 100	> 100	> 100	> 100										
CC[Si](CC)(CC)OC[C@]1([C@@H]2COC(C)(C)O2)CC=CC(=O)O1	> 100		> 100	> 100	> 100	> 100	> 100	> 100		40	40.4		39.5	35.7	19.7		35.4	34.5	19	39.1
Cc1cc(N2CCN(c3ccnc4cc(Cl)ccc34)CC2)nc(NC2CCCCC2)n1	3.34	3.84	2.91	3.44	3.04	3.8		4.35	15	3.3	1.65	2	1.32	1.55	1.08	3.23	1.93		1.73	1.87
CCOc1ccc(Nc2nc(-c3ccc4c(c3)NC(=O)CO4)cs2)cc1	33.6		> 100	> 100	> 100	37.1	> 100	> 100	> 100	3.5	11.1		4.01	4.74	12.4	10	4.27	16.1	1.65	19.6
O=c1ccnc2c1ccc1[nH]cccc12	> 100	> 100	> 100	> 100		> 100	> 100	> 100	> 100	> 100										
COc1cc(C=Nc2ccc(C(C)C)cc2)cc(OC)c1OC	> 100		> 100	> 100	> 100	> 100	> 100	> 54.6	> 100	> 100										
COc1ccc2cc3[n+](cc2c1OC)CCc1cc(O)c(O)cc1-3	> 100		> 100	> 100	> 100	> 100	> 100	> 100	> 100	> 100										
CSc1nc(NC(=O)O)c(N(C(C)=O)C(=O)O)c(=O)n1C	> 100	> 100	> 100	> 100	> 100		> 100	> 100	> 100	> 100										
COc1ccc(-c2ccc(/C=N/n3c(COc4ccc(Cl)cc4Cl)nn(CN4CCN(C)CC4)c3=S)o2)c([N+](=O)[O-])c1	> 100		29.5	35.4		> 100			31		29.3		16	17		12.5	44.5			
COC(=O)C12CC3CC(C1)CC(C(=O)OC)(C3)C2		> 100	> 100	> 100	> 100	> 100	> 100	> 100		> 100										
CN(C)CC/C(=N\Nc1ccccc1)c1ccccc1	33.5	58.9	34.4	27.6	36.5		32.6			35.6										
